According to patent publication US11161811B2, “Process for preparing Mannich base quaternary ammonium salt high-temperature resistant corrosion inhibitor and applications thereof” (SOUTHWEST PETROLEUM UNIVERSITY, priority 2018, dated 2021):

Experiments:
[1] = Compatibility with 20% hydrochloric acid system containing iron ion stabilizer, clay stabilizer and discharge aiding agent; format: physicochemical; settings: 0.1 g in 20% hydrochloric acid system with citric acid, potassium chloride and OP-10 or fluorocarbon surfactant; 90° C.
Procedure: The water solubility of the corrosion inhibitor prepared by Embodiments 1 to 4 and its compatibility with the system containing the iron ion stabilizer, clay stabilizer and discharge aiding agent under 90° C. are determined. The process is as follows: weigh 0.1 g of the corrosion inhibitor respectively, and dissolve in 200 mL of 20% hydrochloric acid solution, stir and observe its dissolution. Prepare 20% hydrochloric acid solution system adding with iron ion stabilizer citric acid, clay stabilizer potassium chloride and discharge aiding agent OP-10 or fluorocarbon surfactant, respectively, and then weigh 0.1 g of the corrosion inhibitor and add them to the 20% hydrochloric acid solution system, to observe the compatibility.

[2] = 4 h corrosion weight loss test (corrosion inhibition performance); settings: P110 carbon steel, 20% hydrochloric acid, 90° C., 1000 ppm corrosion inhibitor
Procedure: The corrosion inhibition performance of corrosion inhibitors in the embodiments 1 to 4 is determined by a 4 h corrosion weight loss test at 90° C. using 20% hydrochloric acid as a corrosive medium and P110 carbon steels. The amount of corrosion inhibitors is 1000 ppm.

[3] = 0.1 g corrosion inhibitor in 200 mL of 20% hydrochloric acid solution, stirred, dissolution observed

SMILES | Compatibility [1] | Inhibition rate [2] | Water solubility [3]
O=C(CC(=C(c1ccccc1)c1ccccc1)c1ccccc1)CC(/C=C/c1ccccc1)[N+]1(Cc2ccc3ccccc3c2)CCCCC1C(c1ccccc1)c1ccccc1 (stereo not drawn) [Embodiment 2] | Uniform and transparent, no | 97.96% | Soluble reddish brown
O=C(/C=C/c1ccccc1)CC(c1cccc(-c2cccs2)c1)[N+](Cc1ccccc1)(Cc1ccccc1)Cc1ccccc1 (stereo not drawn) [Embodiment 1] | Uniform and transparent, no | 98.63% | Soluble reddish brown
O=C(/C=C/c1ccccc1)CC(/C=C/c1ccccc1)[N+]1(C(c2ccccc2)(c2ccccc2)c2ccccc2)C=Cc2ccccc21 (stereo not drawn) [Embodiment 3] | Uniform and transparent, no | 98.59% | Soluble reddish brown
CC(O)C[N+](Cc1ccc2ccccc2c1)(CC(C)O)C(CC(=O)CC(=C(c1ccccc1)c1ccccc1)c1ccccc1)c1cccc(-c2cccs2)c1 (stereo not drawn) [Embodiment 4] | Uniform and transparent, no | 98.41% | Soluble reddish brown
